Results reported in article PMC5129982, “Screen-identified selective inhibitor of lysine demethylase 5A blocks cancer cell growth and drug resistance” (Oncotarget, 2016).

What was measured:
BT474 cells = test: Colony formation assay, BT474 (trastuzumab tolerance); type: cell-based, human
Method: Cells were seeded in 6-well plates at low density: HeLa, MCF7, BT474, and PC9 cells at 1000, 2000, 2500, and 2000 cells/well respectively. Media containing the prescribed drugs or 0.1% DMSO was replaced every 3 days. Trastuzumab was used at 5 μg/ml. Gefitinib was used at 2 μM. YUKA1 was used at 50 or 100 μM. Doxycycline was used at 1 μg/ml for 3 days. After 7–42 days depending on the rate of cell growth, cells were fixed in 4% para-formaldehyde in phosphate-buffered saline for 10 minutes rocking at room temperature. They were incubated in 0.05% crystal violet in double-distilled water for 30 minutes rocking at room temperature, washed with water, and dried 24 hours before photographing. ColonyArea, a plugin for ImageJ software, was used for quantification. Unpaired, two-tailed student's t-test calculated using GraphPad Prism 6.0 software was used to determine significance.

[1] = test system: H3K4 methylation in ZR-75-1 cells; test: Western blot of global H3K4 methylation, ZR-75-1; type: cell-based, human; settings: ZR-75-1, 48 hour treatment
Method: (§1) Cells were lysed as described previously. Histones were separated by centrifugation, resuspended in Laemmeli buffer, and sonicated. Protein concentration of cell lysates was measured by Bradford assay. Samples in Laemmeli buffer were boiled 10 minutes at 95°C and loaded onto 7% (whole cell lysates) or 18% (histones) SDS-PAGE gels. Membranes were blocked in 4% non-fat milk in Tris-buffered saline with 0.05% Tween (TBS-T) and incubated with primary antibodies in the same buffer or 5% bovine serum albumin in TBS-T overnight at 4°C. Membranes were incubated with secondary anti-rabbit or anti-mouse antibodies for one hour at room temperature. Blots were visualized by Thermo Scientific Pierce ECL Western Blotting Substrate (32106) or EMD Millipore Immobilon Western Chemiluminescent HRP Substrate (WBKLS0100) on film. Signal was quantified using ImageJ software.

[2] = test system: H3K4 methylation in HeLa cells; test: Western blot of global H3K4 methylation, HeLa; type: cell-based, human; settings: for H3K4me3 Fold (H3K4me3/Total H3, normalized to DMSO): 48 hr
Method: as §1

MCF10A cells = test: WST-1 proliferation assay, MCF10A; type: cell-based, human; settings: 5 days of treatment
Method: WST-1 reagent from Roche Applied Sciences (11644807001) was used to measure cell number before drug addition and after 3 or 5 days of growth as described previously. Cells were seeded in 96-well plates at the following number of cells per well: HeLa (2000), MCF7 (2000), ZR-75-1 (1000), MCF10A (1000), MDA-MB-231(5000). DMSO was used at 0.1%. Relative absorbance was calculated by subtracting the average background (media only) signal, dividing by the average signal on day 0, and then dividing by the average day 5/day 0 ratio for the DMSO controls. Significance was calculated by unpaired, two-tailed student's t-test using GraphPad Prism 6.0 software.

FLAG-KDM5C = molecular target: T1, FLAG-KDM5C (Homo sapiens, UniProt P41229); test: AlphaScreen KDM5C demethylation assay; type: biochemical
T1 construct: Full-length FLAG-KDM5B, FLAG-KDM5C, and His-FLAG-KDM6A production was detailed previously; FLAG (N); made in house
Method: Histone demethylase assays were performed as described previously, with the exception of all enzyme reactions containing 125 μM α-KG. Enzymes were used at the following approximate concentrations in validation experiments, chosen based on their activity in AlphaScreen assays: 19 nM FLAG-KDM5A, 15 nM FLAG-KDM5B, 6 nM FLAG-KDM5C, 29 nM His-FLAG-KDM6A, and 16 nM FLAG-KDM6B. 24 nM FLAG-KDM5A was used for Km determination experiments. Reactions were carried out for 1 hour, or were stopped by addition of 30 mM EDTA every 5 minutes for determining enzyme kinetics. Km values were calculated using the Michaelis-Menten non-linear regression analysis on GraphPad Prism 6.0 software. The concentration of DMSO in demethylation reactions was 0.05%. For reactions with catalase, catalase (Sigma C30) or an equal volume of dilution buffer was added to the peptide-containing buffer before addition of the demethylase. The final concentration of catalase in the reactions was 0.01 mg/ml.
(§2) The AlphaScreen general IgG (protein A) detection kit from PerkinElmer Life Sciences was used as described previously. The luminescence emission was recorded at 570 nm using the AlphaScreen optic module on a Pherastar (BMG Labtech) or Envision (PerkinElmer Life Sciences) microplate reader.

[3] = test system: H3K4 methylation in MDA-MB-231 cells; test: Western blot of global H3K4 methylation, MDA-MB-231; type: cell-based, human; settings: MDA-MB-231, 72 hr treatment
Method: as §1

full-length FLAG-KDM5A = molecular target: T2, full-length FLAG-KDM5A (Homo sapiens, UniProt P29375); test: AlphaScreen KDM5A demethylation assay; type: biochemical; settings: for inhibition at 2 µM: 2 μM compound
T2 construct: Sf21 insect cells were infected with baculovirus to express full-length FLAG-KDM5A; made in house; host or cells: Sf21 insect cells (baculovirus)
Excerpt: AlphaScreen technology (PerkinElmer) was utilized to perform a screen for small molecule inhibitors of KDM5A. The assay was comprised of two steps, a demethylation reaction followed by detection of the product. A biotinylated H3K4me3 peptide was used as substrate in the demethylation reaction with KDM5A in the presence or absence of small molecule inhibitors. The presence of peptide product (H3K4me1/2) was detected using a product-specific antibody and beads. For this, acceptor beads coated in protein A bound to the antibody, which recognized the peptide product. Donor beads coated in streptavidin bound biotin on the peptide substrate. If the demethylation reaction occurred, the beads were in very close proximity and laser excitation of the donor beads at 680nm caused a transfer of energy in the form of reactive singlet oxygen, resulting in emission by the acceptor beads between 520–620 nm ([30, 31], Figure 1A). The luminescent signal detected was a proxy for the amount of demethylation that occurred.
Reactions were carried out for 1 hour, or were stopped by addition of 30 mM EDTA every 5 minutes for determining enzyme kinetics. Km values were calculated using the Michaelis-Menten non-linear regression analysis on GraphPad Prism 6.0 software. The concentration of DMSO in demethylation reactions was 0.05%. For reactions with catalase, catalase (Sigma C30) or an equal volume of dilution buffer was added to the peptide-containing buffer before addition of the demethylase. The final concentration of catalase in the reactions was 0.01 mg/ml.
as §2
IC50 values were calculated by log transformation and non-linear regression log(inhibitor) versus response(three parameters) using Graphpad Prism 6.0 software.

[4] = test system: H3K4 methylation in MCF7 cells; test: Western blot of global H3K4 methylation, MCF7; type: cell-based, human; settings: 48 hr
Method: as §1

T2 sequence (P29375 whole entry): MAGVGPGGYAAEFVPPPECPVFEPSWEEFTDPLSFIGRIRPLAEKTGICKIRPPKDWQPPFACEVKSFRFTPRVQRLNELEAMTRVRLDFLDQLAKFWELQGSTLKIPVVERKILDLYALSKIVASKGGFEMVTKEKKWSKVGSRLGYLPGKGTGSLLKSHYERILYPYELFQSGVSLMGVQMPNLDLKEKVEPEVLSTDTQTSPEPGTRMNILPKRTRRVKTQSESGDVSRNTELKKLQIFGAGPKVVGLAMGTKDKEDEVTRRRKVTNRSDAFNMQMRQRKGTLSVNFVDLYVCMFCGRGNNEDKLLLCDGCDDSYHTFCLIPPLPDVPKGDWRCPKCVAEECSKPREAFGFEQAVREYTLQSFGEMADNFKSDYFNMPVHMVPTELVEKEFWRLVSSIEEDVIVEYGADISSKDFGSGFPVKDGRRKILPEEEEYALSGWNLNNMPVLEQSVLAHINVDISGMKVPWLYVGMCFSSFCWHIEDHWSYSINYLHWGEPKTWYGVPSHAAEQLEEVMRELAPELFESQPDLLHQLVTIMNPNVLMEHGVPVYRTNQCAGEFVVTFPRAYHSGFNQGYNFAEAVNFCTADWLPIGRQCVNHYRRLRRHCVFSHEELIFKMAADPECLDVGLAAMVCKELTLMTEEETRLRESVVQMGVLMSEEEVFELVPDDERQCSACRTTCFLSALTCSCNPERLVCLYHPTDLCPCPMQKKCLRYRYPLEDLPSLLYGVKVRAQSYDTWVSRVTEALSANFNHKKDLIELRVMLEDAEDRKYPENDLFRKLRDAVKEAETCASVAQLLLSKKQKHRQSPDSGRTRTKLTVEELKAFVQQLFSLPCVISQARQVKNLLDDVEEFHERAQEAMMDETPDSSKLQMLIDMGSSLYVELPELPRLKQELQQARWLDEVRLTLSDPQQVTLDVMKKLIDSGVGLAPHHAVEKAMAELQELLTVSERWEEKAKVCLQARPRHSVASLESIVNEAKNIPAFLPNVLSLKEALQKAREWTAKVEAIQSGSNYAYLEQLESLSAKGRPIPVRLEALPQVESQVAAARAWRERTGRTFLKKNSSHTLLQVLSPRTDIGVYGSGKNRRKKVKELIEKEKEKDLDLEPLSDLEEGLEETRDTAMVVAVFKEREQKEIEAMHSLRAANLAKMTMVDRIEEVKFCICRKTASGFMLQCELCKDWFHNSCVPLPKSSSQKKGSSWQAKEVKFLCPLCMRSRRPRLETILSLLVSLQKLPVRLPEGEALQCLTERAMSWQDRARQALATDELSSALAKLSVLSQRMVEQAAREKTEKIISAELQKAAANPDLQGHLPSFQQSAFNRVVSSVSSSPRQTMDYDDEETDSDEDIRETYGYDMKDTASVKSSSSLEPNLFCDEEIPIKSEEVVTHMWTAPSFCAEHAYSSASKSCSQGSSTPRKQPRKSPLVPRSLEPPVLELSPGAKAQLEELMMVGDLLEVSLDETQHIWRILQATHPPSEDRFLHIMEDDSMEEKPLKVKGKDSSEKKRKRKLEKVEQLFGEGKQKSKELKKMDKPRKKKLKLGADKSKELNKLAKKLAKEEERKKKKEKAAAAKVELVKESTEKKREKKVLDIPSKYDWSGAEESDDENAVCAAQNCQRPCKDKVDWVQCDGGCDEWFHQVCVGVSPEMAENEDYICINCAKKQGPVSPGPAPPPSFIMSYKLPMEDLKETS
T1 sequence (P41229 whole entry): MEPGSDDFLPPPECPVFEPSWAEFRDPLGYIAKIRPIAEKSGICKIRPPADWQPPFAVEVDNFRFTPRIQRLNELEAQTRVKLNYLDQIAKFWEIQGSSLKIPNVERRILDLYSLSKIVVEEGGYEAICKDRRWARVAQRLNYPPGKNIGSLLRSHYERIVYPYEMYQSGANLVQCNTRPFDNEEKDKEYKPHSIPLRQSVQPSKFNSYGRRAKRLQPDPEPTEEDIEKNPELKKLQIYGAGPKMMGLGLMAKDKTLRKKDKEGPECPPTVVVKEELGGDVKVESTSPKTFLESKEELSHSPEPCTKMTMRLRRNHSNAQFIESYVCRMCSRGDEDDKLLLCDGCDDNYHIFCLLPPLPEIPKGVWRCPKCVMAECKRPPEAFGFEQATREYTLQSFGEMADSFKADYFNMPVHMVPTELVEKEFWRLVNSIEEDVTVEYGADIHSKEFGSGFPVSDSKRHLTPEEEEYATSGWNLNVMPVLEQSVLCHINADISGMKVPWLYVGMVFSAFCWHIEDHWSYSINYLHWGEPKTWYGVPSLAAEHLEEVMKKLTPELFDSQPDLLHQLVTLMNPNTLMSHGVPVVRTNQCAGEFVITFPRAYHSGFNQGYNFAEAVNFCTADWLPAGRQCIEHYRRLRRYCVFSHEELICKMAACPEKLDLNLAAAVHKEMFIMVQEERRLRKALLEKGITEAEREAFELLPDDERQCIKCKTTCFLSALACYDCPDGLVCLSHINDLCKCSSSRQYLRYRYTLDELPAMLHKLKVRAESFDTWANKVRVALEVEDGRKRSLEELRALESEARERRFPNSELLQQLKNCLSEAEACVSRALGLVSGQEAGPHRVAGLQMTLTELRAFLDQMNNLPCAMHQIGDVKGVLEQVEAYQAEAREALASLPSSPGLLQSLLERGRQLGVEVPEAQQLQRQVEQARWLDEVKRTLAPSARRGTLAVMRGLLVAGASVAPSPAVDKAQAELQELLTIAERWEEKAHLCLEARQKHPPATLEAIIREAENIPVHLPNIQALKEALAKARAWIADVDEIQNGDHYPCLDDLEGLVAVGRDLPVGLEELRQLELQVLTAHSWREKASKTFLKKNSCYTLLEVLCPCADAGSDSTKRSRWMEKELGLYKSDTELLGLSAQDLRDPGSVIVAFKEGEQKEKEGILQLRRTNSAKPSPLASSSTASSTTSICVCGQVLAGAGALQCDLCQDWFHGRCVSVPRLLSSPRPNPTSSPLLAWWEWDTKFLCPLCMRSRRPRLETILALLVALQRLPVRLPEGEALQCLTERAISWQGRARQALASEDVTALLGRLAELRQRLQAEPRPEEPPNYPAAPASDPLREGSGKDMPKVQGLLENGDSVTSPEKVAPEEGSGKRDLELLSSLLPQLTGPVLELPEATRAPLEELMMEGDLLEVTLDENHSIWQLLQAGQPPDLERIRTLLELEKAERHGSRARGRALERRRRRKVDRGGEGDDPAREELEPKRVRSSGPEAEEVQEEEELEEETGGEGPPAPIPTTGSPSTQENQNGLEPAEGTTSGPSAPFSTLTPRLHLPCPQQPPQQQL

Structure (SMILES): C=CCOc1c(CNn2cnnc2S)cccc1OC [YUKA1, 4-([2-(allyloxy)-3-methoxybenzyl]amino)-4H-1,2,4-triazole-3-thiol]
- cell growth, compound alone (BT474 cells; BT474, 35 days): not changed
- emergence of colonies under trastuzumab (BT474 cells; BT474, plus 5 μg/ml trastuzumab, 42 days): significantly less
- global H3K4me3 levels [1]: increased global H3K4me3 levels
- H3K4me2 and H3K4me1 levels ([2]; HeLa): increased
- cell activity by global H3K4 methylation changes ([2]; HeLa and MCF7 cells, western blot): cell-active
- H3K4me3 Fold (H3K4me3/Total H3, normalized to DMSO) ([2]; HeLa, 50 μM): 3.0
- H3K4me3 Fold (H3K4me3/Total H3, normalized to DMSO) ([2]; HeLa, 100 μM): 3.2
- global H3K4me3 levels ([2]; HeLa, 48 hour treatment): dose-dependent increase
- cell proliferation (MCF10A cells): did not hinder cell proliferation
- fold less active against KDM5C (than KDM5A) (FLAG-KDM5C): ~ 3 fold
- IC50 (FLAG-KDM5C; AlphaScreen): 7.12 µM
- H3K4 methylation [3]: only minor changes
- mode of inhibition with respect to Fe(II) (full-length FLAG-KDM5A): uncompetitive with respect to Fe(II)
- change of IC50 over a 16-fold range of α-KG concentrations (full-length FLAG-KDM5A; 150 nM H3K4me3 peptide, 50 μM Fe(II)): did not change significantly
- inhibition at 2 µM (full-length FLAG-KDM5A; 50 μM Fe(II)): ~70%
- inhibition at 2 µM (full-length FLAG-KDM5A; low Fe(II)): ~25%
- enzyme inhibition at low Fe(II) (full-length FLAG-KDM5A; 5 μM Fe(II)): too weak to generate robust IC50 curves
- effect of catalase on inhibitory potency against KDM5A (full-length FLAG-KDM5A; 0.01 mg/ml catalase): did not affect
- IC50 (full-length FLAG-KDM5A; AlphaScreen, 1 hour reaction, 0.05–50 μM compound): 2.66 µM
- H3K4me3 Fold (H3K4me3/Total H3, normalized to DMSO) ([4]; MCF7, 50 μM): 0.8
- H3K4me3 Fold (H3K4me3/Total H3, normalized to DMSO) ([4]; MCF7, 100 μM): 0.8
